Reference: ChEMBL document CHEMBL1135029, “Novel dihydropyrazine analogues as NPY antagonists” (Bioorg Med Chem Lett, 2002)
pIC50: −log10 of the molar value.

Each compound was assayed against T1, Neuropeptide Y receptor type 1 (Homo sapiens, UniProt P25929) (assay: Inhibition of I-PYY binding to Nueopeptide Y1 receptor expressed in human neuroblastoma SK-N-MC cells).
T1 sequence (P25929 whole entry): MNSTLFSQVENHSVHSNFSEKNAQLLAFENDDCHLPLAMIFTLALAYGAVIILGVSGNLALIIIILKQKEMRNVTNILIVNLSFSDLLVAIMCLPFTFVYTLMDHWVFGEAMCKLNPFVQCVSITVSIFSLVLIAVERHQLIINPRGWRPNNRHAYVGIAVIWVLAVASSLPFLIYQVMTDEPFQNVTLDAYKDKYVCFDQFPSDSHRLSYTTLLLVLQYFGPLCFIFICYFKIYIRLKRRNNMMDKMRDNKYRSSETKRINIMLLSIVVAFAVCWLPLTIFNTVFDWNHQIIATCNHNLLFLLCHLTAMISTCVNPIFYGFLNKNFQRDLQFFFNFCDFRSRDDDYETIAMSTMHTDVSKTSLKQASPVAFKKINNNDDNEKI
Format: cell-based

| Structure (SMILES) | pIC50 |
| --- | --- |
| COC(=O)C1=C(C)N=C(C)/C(=C(/O)OC)C1c1cccc(N/C(=N/CCCN2CCC(c3ccccc3)CC2)NC#N)c1 (stereo not drawn) | 8.27 |
| COC(=O)C1=C(C)N=C(C)/C(=C(/O)OC)N1c1cccc(N/C(=N/CCCN2CCC(c3ccccc3)CC2)NC#N)c1 | 6.57 |
| COC(=O)C1=C(C)N=C(C)/C(=C(/O)OC)C1c1cccc(N/C(S)=N/CCCN2CCN(C3CCCCC3)CC2)c1 (stereo not drawn) | 6.88 |
| COC(=O)C1=C(C)N=C(C)/C(=C(/O)OC)N1c1cccc(NC(=O)NCCCN2CCC(c3cccc(OC)c3)CC2)c1 | 6.26 |
| COC(=O)C1=C(C)N=C(C)/C(=C(/O)OC)N1c1cccc(N/C(S)=N/CCCN2CCN(C3CCCCC3)CC2)c1 | < 6.00 |
| COC(=O)C1=C(C)N=C(C)/C(=C(/O)OC)C1c1cccc(N/C(=N/CCCN2CCC(C(C)(C)C)CC2)NC#N)c1 (stereo not drawn) | > 9.00 |
| COC(=O)C1=C(C)N=C(C)/C(=C(/O)OC)C1c1cccc(NC(=O)NCCCN2CCN(C3CCCCC3)CC2)c1 (stereo not drawn) | 6.75 |
| COC(=O)C1=C(C)N=C(C)/C(=C(/O)OC)N1c1cccc(N/C(S)=N/CCCN2CCC(C(C)(C)C)CC2)c1 | < 6.00 |
| COC(=O)C1=C(C)N=C(C)/C(=C(/O)OC)N1c1cccc(N/C(S)=N/CCCN2CCC(c3cccc(OC)c3)CC2)c1 | 6.02 |
| COC(=O)C1=C(C)N=C(C)/C(=C(/O)OC)C1c1cccc(N/C(S)=N/CCCN2CCC(c3cccc(OC)c3)CC2)c1 (stereo not drawn) | 7.89 |
| COC(=O)C1=C(C)N=C(C)/C(=C(/O)OC)N1c1cccc(NC(=O)NCCCN2CCN(C3CCCCC3)CC2)c1 | 6.36 |
| COC(=O)C1=C(C)N=C(C)/C(=C(/O)OC)N1c1cccc(N/C(=N/CCCN2CCC(C(C)(C)C)CC2)NC#N)c1 | 6.64 |

Each compound was assayed against T1, Neuropeptide Y receptor type 1 (assay: Binding affinity against Neuropeptide Y receptor type 1 using I-PYY as a radioligand in human neuroblastoma SK-N-MC cells).
Format: cell-based

| Structure (SMILES) | pIC50 |
| --- | --- |
| COC(=O)C1=C(C)N=C(C)/C(=C(/O)OC)C1c1cccc(NC(=O)NCCCN2CCC(c3cccc(OC)c3)CC2)c1 (stereo not drawn) | 8.38 |
